Experimental data reported in patent publication US8058228B2, “Leptin peptide antagonists” (Boston Biomedical Research Institute, priority 2004, dated 2011).
Entries after “also recorded” stand apart in the source; their conditions may differ.

Tests used:
Type in all cases: cell-based
OB-R [1] = test: p-Stat3 expression in rabbit endometrial cells (immunocytochemistry, Western blot); settings: for effect on basal expression of p-Stat3 / effect on leptin up-regulation of Stat3 phosphorylation: rESC and rEEC; for effect on basal expression of p-Stat3: Western blot, 3 to 300 nM; for effect on leptin up-regulation of Stat3 phosphorylation: peptides 3 to 300 nM, antibody 1-10 μg/ml
Protocol: (§1) Rabbit endometrial cells (5×10^5 cells/well) were cultured for 5-9 days in DMEM-MCDB105 (3:1) medium containing 10% fetal bovine serum (FBS), 5 μg/ml insulin, 1% amphopthericin B, 100 μg/ml streptomycin and 100 U/ml penicillin until confluent layers were obtained. The cells were washed twice with 100 mM phosphate saline buffer (PBS) −2% BSA (w/v), pH 7.2 and cultured for an additional 2 days in the same medium but without FBS (basal medium). This procedure was performed to reduce any effects of cytokines from FBS on the phosphorylation rate of Stat3 as well as the expression of other cytokines and their receptors. Cells were washed as described before and cultured in basal medium containing leptin (0-10 nM), OB-R antibody (1-20 μg/ml) and/or LPA-2 peptides (0-300 nM). Cultures were stopped at 24 h and the cells were used for immunocytochemistry, binding studies and western blot analysis. The conditioned media were collected, lyophilized and stored at −80° C. for ELISA determinations. Duplicate wells were run for each treatment and the experiments repeated at least three times with different cell preparations from different rabbits. Controls were the same cellular preparations cultured in basal medium containing non-specific goat IgGs and LPA-2Sc.
(§2) The rabbit endometrial cells were cultured as described above in duplicate on 8-well glass-bottom culture plates (Nalgene Nunc International, Naperville, Ill.) and fixed with methanol at −20° C. for 20 min for immunocytochemical studies. All the antibodies tested were diluted in PBS-2% BSA (w/v; buffer A).
(§3) Anti IL-1R tl (1 μg/ml), anti LIF-R (2 μg/ml), anti vimentin (1:50), anti cytokeratin (1:50) and anti p-Stat3 (1 μg/ml) antibodies were used to assess the expression of the respective antigens by rEEC and rESC cultures. After incubation with primary antibodies the cells were incubated with a streptavidin-biotin-alkaline phosphatase system according to the manufacturer directions (Vectastain, ABC-AP kit, Vector Laboratories, Burlingame, Calif.) and counter-stained with hematoxylin (Dako). Negative controls included cell preparations in which the primary antibodies were substituted by irrelevant species matched IgGs.
(§4) After culture in the presence of leptin, LPAs or antibodies, the endometrial cells were washed with ice-cold PBS and lysed by homogenization on ice with lysis buffer [[…] Tris, pH 7.4, containing 137 nM NaCl, 2 mM EDTA, 10% glycerol, 50 mM β-glycerophosphate, 50 nM NaF, 1% Nonidet P-40, 2 mM phenyl-methylsulfonyl fluoride, 2 mM sodium orthovanadate, 100 μM antipain, 0.1 mg/ml trypsin inhibitor and protease cocktail inhibitor 1:50 (Sigma)]. Cellular lysates were centrifuged at 24000 g at 4° C. for 10 min. Protein concentrations were determined using the Bradford protein assay (BioRad Laboratories Inc., Hercules, Calif.).
Protein extracts from cell lysates were combined (1:1) with Laemmli buffer (2× concentrated) and 10 μg of proteins were loaded per lane on 7.5% (for p-Stat3, IL-1R tl and LIF-R) and 10% (for OB-R) SDS-PAGE gels. Electrophoresis was performed at 65 V for 1-1.5 h (BioRad, electrophoresis apparatus). Electroblotting onto 0.2 μm nitrocellulose membranes was performed at 22V overnight at 4° C. in 48 nM Tris-39 nM glycine buffer containing 0.037% SDS and 20% methanol. […]

OB-R [2] = test: IL-1R tl expression by rabbit endometrial cells (immunocytochemistry, Western blot); settings: for effect on leptin up-regulation of IL-1R tl expression: LPA-2 30 and 120 nM, LPA-2Sc 120 nM, antibody 20 μg/ml
Protocol: as §1, §2, §3
as §4, with “Cellular lysates were centrifuged at 24000 g at 4° C. for 10 min.” left out, “Calif.). […]” for “Calif.).”

OB-R [3] = test: LIF-R expression by rabbit endometrial cells (immunocytochemistry, Western blot); settings: leptin 3 nM; for effect on leptin up-regulation of LIF-R expression: rESC (immunocytochemistry) and rEEC (Western blot), LPA-2 30 and 120 nM; for LIF-R expression after leptin: rESC and rEEC
Protocol: as §1, §2, §3
as §4, with “Cellular lysates were centrifuged at 24000 g at 4° C. for 10 min.” left out, “Calif.). […]” for “Calif.).”

| Substance | effect on basal expression of p-Stat3 (OB-R [1]) | effect on leptin up-regulation of Stat3 phosphorylation (OB-R [1]; leptin 3 nM) | effect on basal expression of IL-1R tl (OB-R [2]; rESC, LPA-2 120 nM, Western blot) | effect on leptin up-regulation of IL-1R tl expression (OB-R [2]; rESC, leptin 3 nM) | effect on leptin up-regulation of LIF-R expression (OB-R [3]) | p-Stat3 expression after leptin (OB-R [1]; rESC, immunocytochemistry, leptin 3 nM) | IL-1R tl expression after leptin (OB-R [2]; rabbit endometrial cells, leptin 3 nM) | LIF-R expression after leptin (OB-R [3]) | LIF-R expression after leptin (OB-R [3]; listed as Leptin) |
| --- | --- | --- | --- | --- | --- | --- | --- | --- | --- |
| SRNVIQISNDLENLRDLLHVLAFSKS [LPA-2, 26 amino acid peptide, residues 70-95 of helix III of the human leptin molecule; leptin peptide antagonist] | effectively inhibited the basal expression of p-Stat3 | significantly inhibits the leptin up-regulation of Stat3 phosphorylation | inhibited the basal expression of IL-1R tl | completely abolished; also recorded: significantly decreased | totally inhibited the leptin effect on LIF-R expression |  |  |  |  |
| VAEVLNRSDLIQRISFSLDLNNSKLH [LPA-2Sc, scrambled version of LPA-2, negative control, reference compound] | No inhibitory effect on p-Stat3 expression | not observed |  | did not alter the leptin effect on IL-1R tl expression | did not prevent the leptin up-regulation of LIF-R |  |  |  |  |
| leptin: human recombinant leptin (R&D Systems), OB-R ligand used as stimulus |  |  |  |  |  | up-regulated | substantially up-regulates IL-1R tl expression | up-regulates the expression of LIF-R | significantly increases the expression of LIF-R |
